How the values were obtained:
Cholinesterase = Cholinesterase (Equus caballus, UniProt P81908); test: Inhibition of equine serum BuChE using S-butyrylthiocholine chloride as substrate incubated for 15 mins prior to substrate addition measured after 30 mins by Ellman's method
Acetylcholinesterase = Acetylcholinesterase (Homo sapiens, UniProt P22303); test: Inhibition of AChE (unknown origin) using acetylthiocholine iodide as substrate incubated for 15 mins prior to substrate addition measured after 30 mins by Ellman's method
Sequence of Acetylcholinesterase (P22303 whole entry): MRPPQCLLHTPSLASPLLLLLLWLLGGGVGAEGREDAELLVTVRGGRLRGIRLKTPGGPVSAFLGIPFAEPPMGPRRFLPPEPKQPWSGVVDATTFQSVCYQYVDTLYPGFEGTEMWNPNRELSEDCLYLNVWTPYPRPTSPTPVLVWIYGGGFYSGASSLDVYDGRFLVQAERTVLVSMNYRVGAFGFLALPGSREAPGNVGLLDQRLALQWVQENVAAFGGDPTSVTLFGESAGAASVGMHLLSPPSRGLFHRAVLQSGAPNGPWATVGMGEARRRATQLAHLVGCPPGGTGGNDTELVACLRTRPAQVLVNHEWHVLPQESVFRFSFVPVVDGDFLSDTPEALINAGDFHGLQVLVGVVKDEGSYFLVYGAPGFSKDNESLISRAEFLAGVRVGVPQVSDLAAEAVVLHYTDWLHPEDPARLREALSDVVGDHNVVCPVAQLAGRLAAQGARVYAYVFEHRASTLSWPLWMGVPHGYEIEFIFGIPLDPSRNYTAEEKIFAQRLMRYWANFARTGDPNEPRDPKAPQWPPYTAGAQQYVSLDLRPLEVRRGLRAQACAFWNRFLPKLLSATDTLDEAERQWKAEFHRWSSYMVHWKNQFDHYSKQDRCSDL

Sequence of Cholinesterase (P81908 whole entry): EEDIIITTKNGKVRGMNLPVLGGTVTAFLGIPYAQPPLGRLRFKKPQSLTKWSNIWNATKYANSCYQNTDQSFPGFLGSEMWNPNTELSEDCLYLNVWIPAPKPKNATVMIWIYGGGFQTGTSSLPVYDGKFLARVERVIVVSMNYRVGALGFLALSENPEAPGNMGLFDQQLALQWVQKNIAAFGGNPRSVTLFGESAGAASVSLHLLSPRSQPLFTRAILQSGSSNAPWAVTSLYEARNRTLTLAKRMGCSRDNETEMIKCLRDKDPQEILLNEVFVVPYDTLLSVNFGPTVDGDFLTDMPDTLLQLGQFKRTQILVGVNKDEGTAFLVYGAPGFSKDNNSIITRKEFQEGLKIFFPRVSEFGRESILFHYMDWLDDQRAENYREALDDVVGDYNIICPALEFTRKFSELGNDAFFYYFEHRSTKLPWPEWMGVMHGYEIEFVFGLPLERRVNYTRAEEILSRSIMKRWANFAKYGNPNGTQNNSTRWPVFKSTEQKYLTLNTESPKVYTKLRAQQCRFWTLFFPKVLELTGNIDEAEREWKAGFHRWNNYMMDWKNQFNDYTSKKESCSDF

`O=C1/C(=C/c2cccc3ccccc23)CN(C(=O)[C@H]2C[C@H]3CCCN3[C@]23C(=O)Nc2cc(Cl)ccc23)C/C1=C\c1cccc2ccccc12` gave an IC50 (Cholinesterase) of 9.65 µM and an IC50 (Acetylcholinesterase) of 5.81 µM.

In the case of `O=C1/C(=C/c2ccccc2)CN(C(=O)[C@H]2C[C@H]3CCCN3[C@]23C(=O)Nc2cc(Cl)ccc23)C/C1=C\c1ccccc1`, the IC50 (Cholinesterase) is reported as 15.4 µM and the IC50 (Acetylcholinesterase) is reported as 15.7 µM.

`Cc1ccccc1/C=C1\CN(C(=O)[C@H]2C[C@H]3CCCN3[C@]23C(=O)Nc2cc(Cl)ccc23)C/C(=C\c2ccccc2C)C1=O` gave an IC50 (Cholinesterase) of 15.1 µM and an IC50 (Acetylcholinesterase) of 11.2 µM.

`COc1ccccc1/C=C1\CN(C(=O)[C@H]2C[C@H]3CCCN3[C@]23C(=O)Nc2cc(Cl)ccc23)C/C(=C\c2ccccc2OC)C1=O` was tested, and the IC50 (Cholinesterase) was 7.82 µM and the IC50 (Acetylcholinesterase) was 14.5 µM.

`O=C1/C(=C/c2ccccc2Cl)CN(C(=O)[C@H]2C[C@H]3CCCN3[C@]23C(=O)Nc2cc(Cl)ccc23)C/C1=C\c1ccccc1Cl` showed an IC50 (Cholinesterase) of 17.4 µM and an IC50 (Acetylcholinesterase) of 5.08 µM.

In the case of `O=C1/C(=C/c2ccccc2F)CN(C(=O)[C@H]2C[C@H]3CCCN3[C@]23C(=O)Nc2cc(Cl)ccc23)C/C1=C\c1ccccc1F`, the IC50 (Cholinesterase) is reported as 3.13 µM and the IC50 (Acetylcholinesterase) is reported as 29.5 µM.

Work on `O=C1/C(=C/c2cccc([N+](=O)[O-])c2)CN(C(=O)[C@H]2C[C@H]3CCCN3[C@]23C(=O)Nc2cc(Cl)ccc23)C/C1=C\c1cccc([N+](=O)[O-])c1` yielded an IC50 (Cholinesterase) of 17.2 µM and an IC50 (Acetylcholinesterase) of 4.28 µM.

`O=C1/C(=C/c2ccc(Cl)cc2Cl)CN(C(=O)[C@H]2C[C@H]3CCCN3[C@]23C(=O)Nc2cc(Cl)ccc23)C/C1=C\c1ccc(Cl)cc1Cl` showed an IC50 (Cholinesterase) of 20.1 µM and an IC50 (Acetylcholinesterase) of 3.33 µM.

`Cc1ccc(/C=C2\CN(C(=O)[C@H]3C[C@H]4CCCN4[C@]34C(=O)Nc3cc(Cl)ccc34)C/C(=C\c3ccc(C)cc3)C2=O)cc1` was tested, and the IC50 (Cholinesterase) was 22.2 µM and the IC50 (Acetylcholinesterase) was 7.6 µM.

`O=C1/C(=C/c2ccc(Cl)cc2)CN(C(=O)[C@H]2C[C@H]3CCCN3[C@]23C(=O)Nc2cc(Cl)ccc23)C/C1=C\c1ccc(Cl)cc1` was tested, and the IC50 (Cholinesterase) was 28.2 µM and the IC50 (Acetylcholinesterase) was 3.36 µM.

`O=C1/C(=C/c2ccc(F)cc2)CN(C(=O)[C@H]2C[C@H]3CCCN3[C@]23C(=O)Nc2cc(Cl)ccc23)C/C1=C\c1ccc(F)cc1` showed an IC50 (Cholinesterase) of 3.64 µM and an IC50 (Acetylcholinesterase) of 22.3 µM.

Source: ChEMBL document CHEMBL2380218, “A facile chemo-, regio- and stereoselective synthesis and cholinesterase inhibitory activity of spirooxindole-pyrrolizine-piperidine hybrids” (Bioorg Med Chem Lett, 2013)
